Data set [1] in a line: Retention time of the compound by chromatographic analysis. The class given is physicochemical.
The target in data set [2] is T1, Prostaglandin G/H synthase 2 (Homo sapiens, UniProt P35354).
T1 sequence (P35354 whole entry): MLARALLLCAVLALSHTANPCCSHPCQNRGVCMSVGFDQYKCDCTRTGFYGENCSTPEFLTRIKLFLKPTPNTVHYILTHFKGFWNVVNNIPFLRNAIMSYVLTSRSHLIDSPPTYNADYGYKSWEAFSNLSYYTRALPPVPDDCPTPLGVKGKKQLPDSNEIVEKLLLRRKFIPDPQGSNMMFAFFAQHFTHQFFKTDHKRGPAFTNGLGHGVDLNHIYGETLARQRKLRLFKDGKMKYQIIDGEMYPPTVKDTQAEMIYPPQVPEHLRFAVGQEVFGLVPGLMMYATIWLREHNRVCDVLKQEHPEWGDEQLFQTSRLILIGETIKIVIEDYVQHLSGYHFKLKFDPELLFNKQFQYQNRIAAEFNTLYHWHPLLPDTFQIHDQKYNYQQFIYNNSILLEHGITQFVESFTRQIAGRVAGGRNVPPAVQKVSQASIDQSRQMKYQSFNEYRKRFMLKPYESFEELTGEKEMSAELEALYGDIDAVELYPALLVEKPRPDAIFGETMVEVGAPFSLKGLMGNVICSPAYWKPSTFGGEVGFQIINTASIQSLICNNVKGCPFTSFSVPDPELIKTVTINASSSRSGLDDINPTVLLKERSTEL
Set-up: species or system Blood.

For data set [3], the target named is Prostaglandin G/H synthase 1 (Homo sapiens, UniProt P23219). Also on record: species or system Blood.
Prostaglandin G/H synthase 1, sequence (P23219 whole entry): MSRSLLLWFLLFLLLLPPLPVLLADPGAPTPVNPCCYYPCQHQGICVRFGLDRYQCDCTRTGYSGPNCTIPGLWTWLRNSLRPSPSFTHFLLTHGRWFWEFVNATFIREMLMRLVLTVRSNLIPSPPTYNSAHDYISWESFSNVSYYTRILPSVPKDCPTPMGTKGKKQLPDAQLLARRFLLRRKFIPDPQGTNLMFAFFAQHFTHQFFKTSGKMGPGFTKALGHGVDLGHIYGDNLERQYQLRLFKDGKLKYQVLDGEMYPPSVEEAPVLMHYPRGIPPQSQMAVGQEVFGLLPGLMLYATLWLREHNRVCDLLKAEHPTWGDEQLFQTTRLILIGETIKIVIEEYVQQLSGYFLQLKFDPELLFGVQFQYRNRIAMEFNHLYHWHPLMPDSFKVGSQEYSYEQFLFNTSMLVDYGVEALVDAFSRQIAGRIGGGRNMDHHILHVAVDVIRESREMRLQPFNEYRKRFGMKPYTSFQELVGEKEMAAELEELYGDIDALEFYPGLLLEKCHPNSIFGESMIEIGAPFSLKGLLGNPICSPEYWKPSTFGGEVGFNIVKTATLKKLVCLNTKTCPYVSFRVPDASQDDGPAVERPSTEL
The subject of data set [4] is Rattus norvegicus. As to the kind of experiment: Antiinflammatory activity in Wistar rat lambda carrageenan-induced pleurisy model assessed as decrease in number of leukocytes in pleural space at 10 mg/kg, ip pretreated for 30 mins followed by lambda carrageenan-challenge measured after 4 hrs relative to control. The class given is functional. Also on record: scale not given: the % may be the effect or the level left.

The test system of data set [5] is Rattus norvegicus. Kind of data set: Antiinflammatory activity in Wistar rat lambda carrageenan-induced pleurisy model assessed as decrease in exudate volume at 20 mg/kg, ip pretreated for 30 mins followed by lambda carrageenan-challenge measured after 4 hrs relative to control. The class given is functional. The settings on record: route intraperitoneal.
The nature of data set [6]: Plasma concentration in Wistar rat lambda carrageenan-induced pleurisy model at 20 mg/kg, ip pretreated for 30 mins followed by lambda carrageenan-challenge measured after 4 hrs by SPE-HPLC analysis. The class given is ADME, organism-based. Set-up: dose 20 mg/kg, route intraperitoneal.
Data set [7] is described as follows: Plasma concentration in Wistar rat lambda carrageenan-induced pleurisy model at 10 mg/kg, ip pretreated for 30 mins followed by lambda carrageenan-challenge measured after 4 hrs by SPE-HPLC analysis. Also on record: dose 10 mg/kg, route intraperitoneal. It counts as ADME, organism-based.
Data set [8] relates to Rattus norvegicus. As to the kind of experiment: Antiinflammatory activity in Wistar rat lambda carrageenan-induced pleurisy model assessed as decrease in exudate volume at 10 mg/kg, ip pretreated for 30 mins followed by lambda carrageenan-challenge measured after 4 hrs relative to control. The class given is functional. The settings on record: route intraperitoneal.
For data set [9], the system named is Rattus norvegicus. Kind of data set: Antiinflammatory activity in Wistar rat lambda carrageenan-induced pleurisy model assessed as decrease in exudate volume at 5 mg/kg, ip pretreated for 30 mins followed by lambda carrageenan-challenge measured after 4 hrs relative to control. It counts as functional. The settings on record: route intraperitoneal.
In data set [10] the test system is Rattus norvegicus. As to the kind of experiment: Antiinflammatory activity in Wistar rat lambda carrageenan-induced pleurisy model assessed as decrease in number of leukocytes in pleural space at 20 mg/kg, ip pretreated for 30 mins followed by lambda carrageenan-challenge measured after 4 hrs relative to control. It counts as functional. Also on record: scale not given: the % may be the effect or the level left.

Data set [11] has as its system Rattus norvegicus. Kind of data set: Antiinflammatory activity in Wistar rat lambda carrageenan-induced pleurisy model assessed as decrease in number of leukocytes in pleural space at 5 mg/kg, ip pretreated for 30 mins followed by lambda carrageenan-challenge measured after 4 hrs relative to control. The class given is functional. Set-up: scale not given: the % may be the effect or the level left.

Data set [12] in a line: Plasma concentration in Wistar rat lambda carrageenan-induced pleurisy model at 5 mg/kg, ip pretreated for 30 mins followed by lambda carrageenan-challenge measured after 4 hrs by SPE-HPLC analysis. The class given is ADME, organism-based. Also on record: dose 5 mg/kg, route intraperitoneal.

Activity calls are given as the source filed them. No cut-off for these calls is given here.

In turn, `CCCC(C)C1(CC)C(=O)NC(=O)NC1=O` (centres undefined) [PENTOBARBITAL] gave a Retention_time in data set [1] of 11.71 min.
As for `O=S(=O)(Nc1ccncc1Nc1ccc(F)cc1)C(F)(F)F`, the IC50 worked out at 300 nM in data set [2] and 270 nM in data set [3].
Consider `O=S(=O)(Nc1ccncc1Nc1cccc(I)c1)C(F)(F)F`, for which the IC50 in data set [2] came to 260 nM; in [3], 1930 nM.
For `O=S(=O)(Nc1ccncc1Nc1ccccc1)C(F)(F)F`, the Activity turned out to be 34.83% in data set [4] (route intraperitoneal), 51.7% in data set [10] (route intraperitoneal) and 24.82% in data set [11] (route intraperitoneal). For the same compound, the inhibition in vivo at 20 mg/kg in [5] was 72.2%. Also, the concentration at 4 h in [6] was 3620 ng/mL; in data set [7], 1540 ng/mL; in data set [12], 720 ng/mL. In data set [8], the inhibition in vivo at 10 mg/kg was 55.7%. In addition, in data set [9], the inhibition in vivo at 5 mg/kg stood at 25.4%.
For the compound `O=S(=O)(Nc1ccncc1Nc1ccc(F)c(Cl)c1)C(F)(F)F`, the Activity in data set [4] (route intraperitoneal) turned out to be 48.23%; in data set [10] (route intraperitoneal), 64.71%; in data set [11] (route intraperitoneal), 14.74%. In data set [5], the inhibition in vivo at 20 mg/kg came to 73.5%. Moreover, the concentration at 4 h in [6] is 54600 ng/mL; in [7], 30000 ng/mL; in data set [12], 13000 ng/mL. Also, the half-maximal inhibitory concentration (IC50) in data set [2] came out at 1570 nM; in data set [3], 1740 nM. Also, the inhibition in vivo at 10 mg/kg in [8] is 67.5%. In addition, in data set [9], the inhibition in vivo at 5 mg/kg was 36.6%.
For `O=S(=O)(Nc1ccncc1Nc1cccc(F)c1)C(F)(F)F`, the IC50 in data set [2] is 240 nM; in data set [3] it was 440 nM.
Turning to `Cc1cccc(Nc2cnccc2NS(=O)(=O)C(F)(F)F)c1`, the Activity in data set [4] (route intraperitoneal) is 24.98%; in [10] (route intraperitoneal), 50.18%; in [11] (route intraperitoneal) it was 17.07%. The concentration at 4 h amounted to 410 ng/mL in data set [6], 200 ng/mL in data set [7] and 100 ng/mL in [12].
For `Cc1ccc(Nc2cnccc2NS(=O)(=O)C(F)(F)F)cc1Cl`, the IC50 came out at 1960 nM in data set [2] and 1470 nM in data set [3].
The matching figures for `Cc1cc(C)cc(Nc2cnccc2NS(=O)(=O)C(F)(F)F)c1`: 1040 nM and 4110 nM.
Take `CS(=O)(=O)Nc1ccc([N+](=O)[O-])cc1Oc1ccccc1` [NIMESULIDE]: the Activity was 52.05% in data set [4] (route intraperitoneal), 72.93% in data set [10] (route intraperitoneal) and 23.08% in [11] (route intraperitoneal). The concentration at 4 h in data set [6] turned out to be 75200 ng/mL; in [7] it was 41300 ng/mL; in data set [12], 17000 ng/mL. Further, the inhibition in vivo at 10 mg/kg in data set [8] turned out to be 48.4%. The inhibition in vivo at 5 mg/kg in data set [9] turned out to be 31.1%.
In the case of `N#Cc1cccc(Nc2cnccc2NS(=O)(=O)C(F)(F)F)c1`, the IC50 in data set [2] turned out to be 36200 nM; in [3], 6650 nM.
The matching figures for `O=S(=O)(Nc1ccncc1Nc1ccc(O)cc1)C(F)(F)F`: > 100000 nM and 18100 nM.
On to `Cc1ccc(Nc2cnccc2NS(=O)(=O)C(F)(F)F)cc1Br`, for which the Activity in data set [4] (route intraperitoneal) came to 26.24%; in data set [10] (route intraperitoneal) it was 44.06%. Also, the inhibition in vivo at 20 mg/kg in [5] turned out to be 71%. Moreover, the concentration at 4 h in data set [6] came out at 920 ng/mL; in [7], 180 ng/mL; in data set [12] it was 170 ng/mL. The 50% inhibitory concentration (IC50) in data set [2] turned out to be 90 nM; in data set [3], 1400 nM. Further, the inhibition in vivo at 10 mg/kg in data set [8] worked out at 57.1%. In [9], the inhibition in vivo at 5 mg/kg is 19.4%. In addition, in data set [11], the result was inactive.
As for `Cc1ccc(Nc2cnccc2NS(C)(=O)=O)cc1C`, the figures for the IC50 in data set [2] and in data set [3] were 30700 nM and 3280 nM, respectively.
As to `O=S(=O)(Nc1ccncc1Nc1ccccc1)C1CC1`, the half-inhibitory concentration (IC50) in data set [2] was determined as 35100 nM; in data set [3] it was 3610 nM.
As for `Cc1cc(C)cc(Nc2cnccc2NS(C)(=O)=O)c1`, the IC50 in [2] is > 100000 nM; in [3] it was 14900 nM.
As to `O=S(=O)(Nc1ccncc1Nc1ccc(F)c(Br)c1)C(F)(F)F`, the Activity in [4] (route intraperitoneal) amounted to 41.22%; in data set [10] (route intraperitoneal), 69.78%; in [11] (route intraperitoneal) it was 11.13%. Also, the inhibition in vivo at 20 mg/kg in [5] is 66.5%. The concentration at 4 h in [6] came to 59100 ng/mL; in data set [7] it was 34100 ng/mL; in [12], 11400 ng/mL. Also, the results for the IC50 in data set [2] and in data set [3] were 2270 nM and 1350 nM, respectively. In addition, the inhibition in vivo at 10 mg/kg in data set [8] is 42.6%. For the same compound, in data set [9], the inhibition in vivo at 5 mg/kg came to 21.9%.
Consider `O=S(=O)(Nc1ccncc1Nc1ccc(O)c(Br)c1)C(F)(F)F`, for which the IC50 in data set [2] was > 100000 nM; in data set [3], 4210 nM. For the same compound, the Retention_time in data set [1] worked out at 10.34 min.
On to `Cc1ccc(-c2cc(C(F)(F)F)nn2-c2ccc(S(N)(=O)=O)cc2)cc1` [CELECOXIB], for which the figures for the Activity in data set [4] (route intraperitoneal), in [10] (route intraperitoneal) and in data set [11] (route intraperitoneal) were 23.05%, 28.87% and 24.02%, respectively. In data set [5], the inhibition in vivo at 20 mg/kg came out at 42.1%. Further, the concentration at 4 h in [6] was found to be 2680 ng/mL; in data set [7], 1130 ng/mL; in [12] it was 620 ng/mL. Besides, the inhibition in vivo at 10 mg/kg in [8] was determined as 27.3%. The inhibition in vivo at 5 mg/kg in [9] stood at 15.7%.
With `O=S(=O)(Nc1ccncc1Nc1ccc(Cl)cc1)C(F)(F)F`, the Activity in data set [4] (route intraperitoneal) was found to be 54.44%; in data set [10] (route intraperitoneal), 72.47%; in [11] (route intraperitoneal) it was 44.15%. For the same compound, the concentration at 4 h came to 27300 ng/mL in [6], 9490 ng/mL in [7] and 4610 ng/mL in [12].
For the compound `CS(=O)(=O)Nc1ccncc1Nc1ccc(F)cc1`, the half-inhibitory concentration (IC50) was determined as 20700 nM in data set [2] and 2090 nM in [3].
In the case of `O=S(=O)(Nc1ccncc1Nc1cccc(Cl)c1)C(F)(F)F`, the result in [4] and in [11] was inactive. Further, the concentration at 4 h in data set [6] stood at 1400 ng/mL; in [7] it was 680 ng/mL; in data set [12], 560 ng/mL. Besides, in data set [10] (route intraperitoneal), the Activity is given as 16.41%.
With `CS(=O)(=O)Nc1ccncc1Nc1cccc(Cl)c1`, the result in data set [4], in [10] and in [11] was inactive. Also, the values for the concentration at 4 h in data set [6], in [7] and in [12] were 1860 ng/mL, 690 ng/mL and 260 ng/mL, respectively.
For the compound `CS(=O)(=O)Nc1ccncc1Nc1cccc(F)c1`, the results for the half-maximal inhibitory concentration (IC50) in [2] and in data set [3] were 10000 nM and 1370 nM, respectively.
As for `O=S(=O)(Nc1ccncc1Nc1cccc(Br)c1)C(F)(F)F`, the Activity in [4] (route intraperitoneal) worked out at 27.07%; in [10] (route intraperitoneal), 28.52%; in data set [11] (route intraperitoneal) it was 27.1%. The concentration at 4 h in data set [6] was 820 ng/mL; in [7], 430 ng/mL; in data set [12], 300 ng/mL. In addition, the Retention_time in data set [1] turned out to be 13.65 min.
`Cc1cc(Nc2cnccc2NS(=O)(=O)C(F)(F)F)ccc1Br`: the concentration for half-maximal inhibition (IC50) worked out at 300 nM in data set [2] and 2320 nM in data set [3].
Taken in the same sequence, the figures for `O=S(=O)(C1CC1)N(c1ccncc1Nc1ccccc1)S(=O)(=O)C1CC1` were 56800 nM and 19600 nM.
On to `Cc1ccc(Nc2cnccc2NS(=O)(=O)C(F)(F)F)cc1C`, for which the IC50 in data set [2] came out at 550 nM; in data set [3], 710 nM.

Broadly, the IC50 is the concentration that gives 50% inhibition. The inhibition in vivo is how much of the control response was suppressed.
